Experimental data taken from article PMC4287437, “Novel Inhibitors Induce Large Conformational Changes of GAB1 Pleckstrin Homology Domain and Kill Breast Cancer Cells” (PLoS Computational Biology, 2015).
Several values for one entry are separate records, joined by “and”; a condition that tells them apart may be missing. Equal entries are not always repeated.

Experiments:
[1] = target: T1, human GAB1 PH domain (Homo sapiens, UniProt Q13480); assay: SPR direct binding to GAB1 PH domain; details: for Kd: read-out: KD GAB1; for Kd / KD GAB1: SPR, immobilized PH domain GST-fusion, NB = No Binding; for Exp. ΔGbind: GAB1, derived from experimental KD (or Ki)
T1 sequence (Q13480 5-116 limits assumed): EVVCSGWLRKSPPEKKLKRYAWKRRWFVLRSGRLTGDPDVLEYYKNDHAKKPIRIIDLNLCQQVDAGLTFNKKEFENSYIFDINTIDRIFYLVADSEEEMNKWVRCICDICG
Description: (§3) Binding assays were performed using a Biacore 2000 instrument with the Biacore Control Software v3.2 and BIAevaluation v4.1 analysis software (Biacore, Piscataway, NJ) as previously described [51]. Briefly, the PH domain GST-fusion proteins were immobilized on a CM5 Sensorchip (Biacore BR-1000-12) using Biacore's Amine Coupling Kit (Biacore BR-1000-50) to a level of 10,000 Response units (RUs). Small molecule analytes at concentrations ranging from one tenth to ten times the predicted K D were injected at a high flow rate (30 µL/min). Dimethylsulfoxide (DMSO) concentrations in all samples and running buffer were 1% (v/v) or less. For the competitive binding assays and K i determination, PtdIns(3,4,5)P3-biotin labeled liposomes (Echelon Biosciences, Salt Lake City, UT) and SA chips were used with increasing concentrations of the compound tested. We did triplicate SPR assays for each concentration.

[2] = test system: T47D; assay: Cellular proliferation (MTT) assay, T47D; type: cell-based, human; details: for IC50: 4 days growth, MTT, IA = Inactive; for toxicity to T47D at 100 µM: data not shown
Description: (§1) T47D and MDA-MB-231 cells were maintained in bulk culture in Dulbecco's modified Eagle medium (DMEM) supplemented with 10% heat-inactivated fetal bovine serum (FBS), 4.5 g/L glucose, 100 U/mL penicillin and […] streptomycin in a 5% CO2 atmosphere. MCF-10A cells were maintained in MEGM with other conditions same as the cancer cell lines. […] Cells were confirmed to be mycoplasma free by testing them with an ELISA kit (Roche-Boehringer Mannheim, Indianapolis, IN). Our hit compounds were freshly prepared in DMSO at a stock concentration of 10 mM. For the evaluation of cellular proliferation, a standard 96-well micro-cytotoxicity assay was performed as described in reference. Briefly, the assay was set up by plating cells at 5,000–10,000 cells per well (depending on cell doubling time) for a growth period of 4 days. The identified hits were added directly to the media, dissolved in DMSO at various concentrations ranging from 1 to 200 µM. The endpoint was spectrophotometric determination of the reduction of 3-(4,5-dimethylthiazol-2-yl)-2,5-diphenyltetrazolium bromide. All assays were performed in triplicates.

[3] = test system: MDA-MB-468 cell line; assay: Cellular proliferation assay, MDA-MB-468; type: cell-based; details: cell marked ** in MDA-MB-231 column: MDA-MB-468 cell line used
Description: (§2) Two human breast cancer cell lines and one normal breast cell line were used for this study: T47D ductal breast epithelial tumor cell line, MDA-MB-231 epithelial tumor cell line and MCF-10A non-tumorigenic epithelial cell line (American Type Culture Collection, Rockville, MD). T47D and MDA-MB-231 cells were maintained in bulk culture in Dulbecco's modified Eagle medium (DMEM) supplemented with 10% heat-inactivated fetal bovine serum (FBS), 4.5 g/L glucose, 100 U/mL penicillin and […] streptomycin in a 5% CO2 atmosphere. MCF-10A cells were maintained in MEGM with other conditions same as the cancer cell lines. Cells were passaged using 0.25% trypsin and 0.02% EDTA. Cells were confirmed to be mycoplasma free by testing them with an ELISA kit (Roche-Boehringer Mannheim, Indianapolis, IN). Our hit compounds were freshly prepared in DMSO at a stock concentration of 10 mM. For the evaluation of cellular proliferation, a standard 96-well micro-cytotoxicity assay was performed as described in reference. Briefly, the assay was set up by plating cells at 5,000–10,000 cells per well (depending on cell doubling time) for a growth period of 4 days. The identified hits were added directly to the media, dissolved in DMSO at various concentrations ranging from 1 to 200 µM. […]

[4] = test system: phospho-Tyr627 GAB1; assay: Inhibition of GAB1 Y627 phosphorylation in T47D cells; type: cell-based, human; details: 20 µM, 4 hr, HGF stimulated
Description: For all biological assays, hit compounds were added at 20 µM concentration directly into the culture media of the cells for 4 hr following a 16 hr incubation of T47D cells without FBS. Cells were stimulated with HGF for 20 min at 50 ng/ml. Following this treatment, cells were lysed as previously published and equal amounts of total cell lysate were loaded on a pSer^312-IRS-1/Total IRS-1 Meso Scale Discovery plate as described by the manufacturer. The plate was read using a Sector Imager 2400A instrument (Meso Scale Discovery protein profiling system, Gaithersburg, MD). For the measurement of GAB1 phosphorylation, T47D cells were treated as for the phosphorylation of IRS1 evaluation. […] Each experiment was performed at least three times.

[5] = target: T2, human IRS1 PH domain (Homo sapiens, UniProt P35568); assay: SPR direct binding to IRS1 PH domain; details: for Kd: read-out: KD IRS1; for Exp. ΔGbind: IRS1, derived from experimental KD
T2 sequence (P35568 12-115 limits assumed): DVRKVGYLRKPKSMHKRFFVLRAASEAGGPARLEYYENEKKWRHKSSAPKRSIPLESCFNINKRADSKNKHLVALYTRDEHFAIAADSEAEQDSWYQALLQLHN
Description: as §3

[6] = target: GAB2 PH domain (Homo sapiens, UniProt Q9UQC2); assay: Follow-up binding to GAB2 PH domain; details: follow-up experiments
Chain of GAB2 PH domain (Q9UQC2 6-117 limits assumed): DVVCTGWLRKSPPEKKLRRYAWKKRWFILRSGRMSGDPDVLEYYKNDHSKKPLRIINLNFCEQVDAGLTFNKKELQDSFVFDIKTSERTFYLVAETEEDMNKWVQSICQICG

[7] = test system: MDA-MB-231; assay: Cellular proliferation (MTT) assay, MDA-MB-231; type: cell-based, human; details: for IC50: 4 days growth, MTT, IA = Inactive; for toxicity to MDA-MB-231 at 100 µM: data not shown
Description: as §1

[8] = target: T1, human GAB1 PH domain; assay: SPR competitive binding (PtdIns(3,4,5)P3-biotin liposomes), Ki, GAB1 PH domain; details: read-out: Ki GAB1, cells marked * (Ki measurement)
Description: as §3

[9] = test system: MCF-10A; assay: Cellular proliferation assay, MCF-10A non-tumorigenic cells; type: cell-based, human; details: data not shown
Description: as §2

[10] = SPR, immobilized PH domain GST-fusion, NB = No Binding

Compound	Kd [1] [nM]	IC50 [2] [µM]	% pGAB1 inhibition [4] [%]	Kd [5, 10] [µM]	IC50 [7] [µM]	other results
Cc1nnc(NS(=O)(=O)c2ccc(NS(=O)(=O)c3ccc4ccccc4c3)cc2)s1 [GAB-014]	> 50000	178 ± 3.9	42	> 50	–	IC50 [3]: 69.9 ± 0.1 µM
CCCCCCCCCCCCc1ccc(S(=O)(=O)Nc2nnc(CC(=O)OCC)s2)cc1 [GAB-016]	900 ± 100	–	–	0.15	–	Exp. ΔGbind [1]: -8.31 kcal/mol; KD GAB1 [1]: nanomolar binding affinity; targeting of GAB2 PH domain [6]: targets GAB2 PH domain as well; Exp. ΔGbind [5]: -9.38 kcal/mol
O=S(=O)(NCc1csc(-c2cccs2)n1)c1ccc(N2CCOCC2)nc1 [GAB-008]	> 50000	43.2 ± 3.2	8	16.2 ± 1.7	> 200	–
CCc1ccc(C(=O)OC)cc1CSc1nnc(-c2ccc(C(F)(F)F)cc2)n1Cc1ccoc1 [GAB-019]	–	39.4 ± 6.2	91	–	–	–
Cn1cnc(S(=O)(=O)Nc2ccccc2SCCS(=O)(=O)c2ccc(Cl)cc2)c1 [GAB-002]	2100 ± 100	138 ± 6.9	32	16.4 ± 4.3	143 ± 11.6	–
Cc1cc2ncc(-c3cnc(SCCS(=O)(=O)c4ccc(Cl)cc4)nc3)c(C)n2n1 [GAB-006]	> 50000	101 ± 1.8	16	> 50	–	–
CCCCCCCCCCCCCCCCCCOC[C@H](COP(=O)(O)OC1C(O)[C@@H](O)C(O)C[C@H]1O)OC (stereo partly shown) [DPIEL, reference compound]	2800	–	72	–	–	–
CCCCCCCCCCCCc1ccc(S(=O)(=O)Nc2nnc(CC(=O)O)s2)cc1 [GAB-015]	–	125 ± 5.4	77	0.05	–	Ki [8]: 13.1 ± 1.5 µM
O=S(=O)(NCc1csc2ccc(Cl)cc12)c1cc(S(=O)(=O)c2ccccc2)cs1 [GAB-001]	–	23.7 ± 2.7	55	> 50	40.3 ± 1.3	Exp. ΔGbind [1]: -6.91 kcal/mol; Ki [8]: 9.4 µM and 9.38 µM; KD IRS1 [5, 10]: not to IRS1 PH domain
CCCCCCCCCCCCc1ccc(S(=O)(=O)Nc2nncs2)cc1 [GAB-020]	1330	–	87	–	–	–
CCCCCCCCCCCCc1ccc(S(=O)(=O)Nc2nnc(S(N)(=O)=O)s2)cc1 [GAB-018]	–	185 ± 2.5	71	> 50	–	killing of T47D cells at 50 µM [2]: did not effectively kill; Ki [8]: 36.6 ± 5 µM; killing of MDA-MB-231 cells at 50 µM [7]: did not effectively kill
Cc1noc(C)c1NC(=O)NCc1csc(-c2cccs2)n1 [GAB-009]	> 50000	97.6 ± 6.1	38	> 50	163 ± 6	–
O=c1[nH]nc(SCc2csc(-c3ccccc3)n2)n1Cc1ccco1 [GAB-004]	2200 ± 1100	19.4 ± 2.9	81	> 50	66.6 ± 4.6	Exp. ΔGbind [1]: -7.78 kcal/mol
CCCCCCCCCCCCc1ccc(S(=O)(=O)Nc2nnc(C(=O)OCC)s2)cc1 [GAB-017]	680 ± 30	–	–	0.05	–	Exp. ΔGbind [1]: -8.47 kcal/mol; KD GAB1 [1]: nanomolar binding affinity
Cc1onc(-c2ccccc2)c1-c1nc(CSc2nc3ccccc3[nH]2)no1 [GAB-010]	> 50000	23.8 ± 4.2	92	0.12 ± 0.02	66 ± 4.4	Exp. ΔGbind [5]: -9.51 kcal/mol
Cn1c(Cc2ccsc2)nnc1SCC(=O)Nc1cc(Cl)cc(Cl)c1 [GAB-011]	> 50000	> 200	24	> 50	> 200	–
COc1cc(NS(=O)(=O)c2ccc(NS(=O)(=O)c3c(C)noc3C)cc2)nc(OC)n1 [GAB-013]	> 50000	> 200	27	> 50	> 200	killing of T47D cells at 50 µM [2]: did not effectively kill; toxicity to T47D at 100 µM [2]: not for T47D and MDA-MB-231; toxicity to MCF-10A at 100 µM [9]: toxic; killing of MDA-MB-231 cells at 50 µM [7]: did not effectively kill; toxicity to MDA-MB-231 at 100 µM [7]: not for T47D and MDA-MB-231
CS(=O)(=NS(=O)(=O)c1ccc(-c2ccccn2)s1)c1ccc(Cl)cc1 (stereo not shown) [GAB-005]	> 50000	> 200	6	> 50	> 200	–
O=C(O)c1ccccc1C(=O)Nc1ccccc1SCCS(=O)(=O)c1ccc(Cl)cc1 [GAB-012]	> 50000	119 ± 3.6	43	> 50	> 200	killing of T47D cells at 50 µM [2]: did not effectively kill; toxicity to T47D at 100 µM [2]: not for T47D and MDA-MB-231; toxicity to MCF-10A at 100 µM [9]: toxic; killing of MDA-MB-231 cells at 50 µM [7]: did not effectively kill; toxicity to MDA-MB-231 at 100 µM [7]: not for T47D and MDA-MB-231
CS(=O)(=O)CCSc1ncccc1C(=O)Sc1ccc(Cl)cc1Cl [GAB-007]	42300 ± 8900	20.1 ± 4.3	53	1.6 ± 0.2	4.6 ± 0.7	Exp. ΔGbind [1]: -6.01 kcal/mol; Exp. ΔGbind [5]: -7.93 kcal/mol
